# Test results from patent US8618289B2 (Ambit Biosciences Corporation, priority 2008, dated 2013).
# Where a name gives a salt, the structure may show the parent alone.
# How the values were obtained:
# RAF kinases [1] = molecular target: RAF kinases (Homo sapiens, UniProt P04049); conditions: read-out: RAF1 Kd; RAF1
# RAF kinases [2] = molecular target: RAF kinases (Homo sapiens, UniProt P15056); conditions: read-out: BRAF WT Kd; BRAF WT
# RAF kinases [3] = molecular target: RAF kinases (Homo sapiens, UniProt P15056, V600E); conditions: read-out: BRAF V600E Kd; BRAF V600E
# [4] = test system: MEK1 phosphorylation in the A375 human melanoma cell line; test: cells; conditions: A-375, read-out: pMEK IC50
# A375 cells = test: cells; conditions: Homo sapiens, A-375, read-out: A375 Viability EC50
# Chain of RAF kinases (Homo sapiens, UniProt P04049) (P04049 whole entry): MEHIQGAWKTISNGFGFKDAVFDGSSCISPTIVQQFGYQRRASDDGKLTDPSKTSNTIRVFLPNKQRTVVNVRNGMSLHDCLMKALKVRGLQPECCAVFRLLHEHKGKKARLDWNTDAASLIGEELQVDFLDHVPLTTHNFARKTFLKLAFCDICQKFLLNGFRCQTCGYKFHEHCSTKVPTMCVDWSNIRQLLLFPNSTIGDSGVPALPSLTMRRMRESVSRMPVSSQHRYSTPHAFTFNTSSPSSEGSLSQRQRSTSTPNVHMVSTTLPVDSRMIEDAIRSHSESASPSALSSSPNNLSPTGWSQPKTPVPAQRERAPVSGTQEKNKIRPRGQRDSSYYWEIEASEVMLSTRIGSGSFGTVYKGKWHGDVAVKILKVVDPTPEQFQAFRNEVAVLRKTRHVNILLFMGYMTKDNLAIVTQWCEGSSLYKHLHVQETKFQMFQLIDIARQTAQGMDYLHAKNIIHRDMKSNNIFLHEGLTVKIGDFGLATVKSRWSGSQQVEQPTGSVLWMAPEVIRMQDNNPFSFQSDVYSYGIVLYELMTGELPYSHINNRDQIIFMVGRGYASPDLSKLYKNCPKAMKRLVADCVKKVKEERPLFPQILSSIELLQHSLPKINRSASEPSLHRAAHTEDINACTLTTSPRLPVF
# Chain of RAF kinases (Homo sapiens, UniProt P15056) (P15056 whole entry): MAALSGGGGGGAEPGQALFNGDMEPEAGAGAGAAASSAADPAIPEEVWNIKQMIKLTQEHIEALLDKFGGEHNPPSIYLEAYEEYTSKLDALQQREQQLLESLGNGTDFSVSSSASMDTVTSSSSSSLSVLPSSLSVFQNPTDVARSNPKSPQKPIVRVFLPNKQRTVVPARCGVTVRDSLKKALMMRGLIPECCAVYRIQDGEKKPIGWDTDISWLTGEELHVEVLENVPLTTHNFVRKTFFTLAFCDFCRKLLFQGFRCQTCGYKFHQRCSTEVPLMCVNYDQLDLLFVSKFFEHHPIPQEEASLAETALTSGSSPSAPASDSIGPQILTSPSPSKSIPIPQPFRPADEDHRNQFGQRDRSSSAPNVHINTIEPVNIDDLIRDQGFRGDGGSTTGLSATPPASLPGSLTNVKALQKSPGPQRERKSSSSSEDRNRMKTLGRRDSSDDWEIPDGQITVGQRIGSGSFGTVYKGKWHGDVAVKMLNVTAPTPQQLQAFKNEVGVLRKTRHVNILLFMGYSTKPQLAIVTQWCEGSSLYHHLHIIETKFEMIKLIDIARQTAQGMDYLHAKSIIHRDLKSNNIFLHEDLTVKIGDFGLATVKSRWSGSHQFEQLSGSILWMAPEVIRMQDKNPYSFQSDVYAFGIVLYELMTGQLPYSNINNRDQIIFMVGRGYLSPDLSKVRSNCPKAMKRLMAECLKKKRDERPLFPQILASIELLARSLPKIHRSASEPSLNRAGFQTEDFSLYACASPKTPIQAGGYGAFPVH
# Chain of RAF kinases (Homo sapiens, UniProt P15056, V600E) (P15056 whole entry V600E): as the sequence (P15056 whole entry) above, with V600E counted along it
SMILES,Kd (RAF kinases [1]) [nM],Kd (RAF kinases [2]) [nM],Kd (RAF kinases [3]) [nM],IC50 [4] [nM],EC50 (A375 cells) [nM]
"COCCOc1cc2ncnc(Oc3cccc(NC(=O)Nc4cc(C5CCCC5)on4)c3)c2cc1OC [Ex 219, 1-(5-cyclopentylisoxazol-3-yl)-3-(3-(6-methoxy-7-(2-methoxyethoxy)quinazolin-4-yloxy)phenyl)urea]",< 250,< 250,< 250,< 250,250 to 500
"COCCOc1cc2ncnc(Oc3cccc(NC(=O)Nc4cc(C(F)(F)F)nn4C)c3)c2cc1OC [Ex 220, 1-{3-[6-methoxy-7-(2-methoxyethoxy)quinazolin-4-yloxy]phenyl}-3-[1-methyl-3-(trifluoromethyl)-1H-pyrazol-5-yl]urea]",< 250,< 250,< 250,500 to 1000,> 1000
"CCOC(=O)Cn1nc(C(C)(C)C)cc1NC(=O)Nc1cccc(Oc2ncnc3cc(OCCOC)c(OC)cc23)c1 [Ex 224, ethyl 2-[3-tert-butyl-5-(3-{3-[6-methoxy-7-(2-methoxyethoxy)quinazolin-4-yloxy]phenyl}ureido)-1H-pyrazol-1-yl]acetate hydrochloride]",> 1000,> 1000,> 1000,> 1000,> 1000
"COCCOc1cc2ncnc(Sc3cccc(NC(=O)Nc4cc(C(C)C)on4)c3)c2cc1OC [Ex 232, 1-(5-isopropylisoxazol-3-yl)-3-(3-(6-methoxy-7-(2-methoxyethoxy)quinazolin-4-ylthio)phenyl)urea]",< 250,< 250,< 250,250 to 500,> 1000
"COCCOc1cc2ncnc(Sc3cccc(NC(=O)Nc4cc(C(C)(CF)CF)nn4-c4ccccc4)c3)c2cc1OC [Ex 238, 1-[3-(1,3-difluoro-2-methylpropan-2-yl)-1-phenyl-1H-pyrazol-5-yl]-3-{3-[6-methoxy-7-(2-methoxyethoxy)quinazolin-4-ylthio]phenyl}urea]",> 1000,> 1000,> 1000,< 250,> 1000
"COCCOc1cc2ncnc(Sc3cccc(NC(=O)Nc4cc(C(F)(F)F)nn4C)c3)c2cc1OC [Ex 239, 1-{3-[6-methoxy-7-(2-methoxyethoxy)quinazolin-4-ylthio]phenyl}-3-[1-methyl-3-(trifluoromethyl)-1H-pyrazol-5-yl]urea]",< 250,< 250,< 250,250 to 500,> 1000
"COCCOc1cc2ncnc(Sc3cccc(NC(=O)Nc4cc(C(F)(F)F)nn4-c4ccc(C)cc4)c3)c2cc1OC [Ex 243, 1-{3-[6-methoxy-7-(2-methoxyethoxy)quinazolin-4-ylthio]phenyl}-3-[1-p-tolyl-3-(trifluoromethyl)-1H-pyrazol-5-yl]urea]",> 1000,> 1000,> 1000,250 to 500,250 to 500
"COCCOc1cc2ncnc(Sc3cccc(NC(=O)Nc4cc(C(F)(F)F)n(-c5ccccc5)n4)c3)c2cc1OC [Ex 244, 1-{3-[6-methoxy-7-(2-methoxyethoxy)quinazolin-4-ylthio]phenyl}-3-[1-phenyl-5-(trifluoromethyl)-1H-pyrazol-3-yl]urea]",> 1000,> 1000,> 1000,> 1000,> 1000
"COc1cc2c(Oc3cccc(NC(=O)Nc4ccc(OC)c(C(F)(F)F)c4)c3)ncnc2cc1OCCN1CCOCC1 [Ex 250, 1-(4-methoxy-3-(trifluoromethyl)phenyl)-3-(3-(6-methoxy-7-(2-morpholinoethoxy)quinazolin-4-yloxy)phenyl)urea]",< 250,< 250,< 250,250 to 500,> 1000
"COc1cc2ncnc([S+]([O-])c3cccc(NC(=O)Nc4cc(C(C)(C)C)on4)c3)c2cc1OC (centres unmarked) [Ex 253, 1-(5-tert-butylisoxazol-3-yl)-3-(3-(6,7-dimethoxyquinazolin-4-ylsulfinyl)phenyl)urea]",> 1000,> 1000,> 1000,500 to 1000,> 1000
